Tested on: MCF-7/Dox cell, which is MCF-7 expressing p-glycoprotein
Settings: enhancement of anticancer activity of paclitaxel against MCF7/Dox; ED50 of paclitaxel alone / ED50 with 50 nM test compound
Description: The cells were subcultured in 5% FBS (fetal bovine serum)/RPMI1640 medium supplemented with glutamine 2 mmol, sodium bicarbonate 3.7 g/L and gentamicin 10 mg/L at 37° C. in 5% CO2 incubator under 100% humidity, and collected using a 0.25% trypsin solution containing 3 mM 1,2-cyclohenxandiamine tetraacetic acid.
The collected cells were plated on a 96 well flat-bottomed plate at a density of 2×10^3 cells/well, and incubated in the same medium for 24 hours. Paclitaxel, an anticancer agent, was diluted with the same medium to obtain 10^−11˜10^−6 M test solutions. […] After incubating for 72 hours, the culture medium was removed, each well was treated with 10% trichloroacetic acid for 1 hour to fix the cells, washed with water, and dried at room temperature. After adding a dyeing solution containing 1% acetic acid with 0.4% SRB (sulforhodamine B) thereto, the wells were kept at room temperature for 30 min, and washed with 1% acetic acid to remove remaining SRB. […] Also, the enhancement of the anticancer activity of paclitaxel against MCF7/Dox (resistant cancer cells) was measured by determining ED^PAC50/ED50, wherein ED^PAC50 is the value determined for the case of paclitaxel alone.

| SMILES | ED50^PAC/ED50 |
| --- | --- |
| COc1cc2c(cc1OC)CN(CCc1ccc(-n3nnc(-c4cc(OC)c(OC)cc4NC(=O)c4ccccc4F)n3)cc1)CC2 [Example 15] | 4.1 |
| COc1cc2c(cc1OC)CN(CCc1ccc(-n3nnc(-c4cc(OC)c(OC)cc4NC(=O)c4cc(=O)c5ccccc5o4)n3)cc1)CC2 [Example 21, 4-oxo-4H-chromen-2-carboxylic acid [2-(2-{4-[2-(6,7-dimethoxy-3,4-dihydro-1H-isoquinolin-2-yl)-ethyl]-phenyl}-2H-tetrazol-5-yl)-4,5-dimethoxy-phenyl]-amide] | 60.1 |
| COc1cc2c(cc1OC)CN(CCc1ccc(-n3nnc(-c4cc(OC)c(OC)cc4NC(=O)c4ccc(F)cc4)n3)cc1)CC2 [Example 17, N-[2-(2-{4-[2-(6,7-dimethoxy-3,4-dihydro-1H-isoquinolin-2-yl)-ethyl]-phenyl}-2H-tetrazol-5-yl)-4,5-dimethoxy-phenyl]-4-fluoro-benzamide] | 4.0 |
| COc1cc2c(cc1OC)CN(CCc1ccc(-n3nnc(-c4cc(OC)c(OC)cc4NC(=O)c4cnccn4)n3)cc1)CC2 [Example 12, pyrazine-2-carboxylic acid [2-(2-{4-[2-(6,7-dimethoxy-3,4-dihydro-1H-isoquinolin-2-yl)-ethyl]-phenyl}-2H-tetrazol-5-yl)-4,5-dimethoxy-phenyl]-amide] | 3.0 |
| COc1cc2c(cc1OC)CN(CCc1ccc(-n3nnc(-c4cc(OC)c(OC)cc4NC(=O)c4ccc(F)c(F)c4)n3)cc1)CC2 [Example 18, N-[2-(2-{4-[2-(6,7-dimethoxy-3,4-dihydro-1H-isoquinolin-2-yl)-ethyl]-phenyl}-2H-tetrazol-5-yl)-4,5-dimethoxy-phenyl]-3,4-difluoro-benzamide] | 3.7 |
| COc1cc2c(cc1OC)CN(CCc1ccc(-n3nnc(-c4cc(OC)c(OC)cc4NC(=O)c4cccnc4)n3)cc1)CC2 [Example 10, N-[2-(2-{4-[2-(6,7-dimethoxy-3,4-dihydro-1H-isoquinolin-2-yl)-ethyl]-phenyl}-2H-tetrazol-5-yl)-4,5-dimethoxy-phenyl]-nicotinamide] | 3.0 |
| COc1cc2c(cc1OC)CN(CCc1ccc(-n3nnc(-c4cc(OC)c(OC)cc4NC(=O)C=Cc4cnc5ccccc5c4)n3)cc1)CC2 [Example 32, N-[2-(2-{4-[2-(6,7-dimethoxy-3,4-dihydro-1H-isoquinolin-2-yl)-ethyl]-phenyl}-2H-tetrazol-5-yl)-4,5-dimethoxy-phenyl]-3-quinolin-3-yl-acrylamide] | 19.2 |
| COc1cc2c(cc1OC)CN(CCc1ccc(-n3nnc(-c4cc(OC)c(OC)cc4NC(=O)c4coc5ccccc5c4=O)n3)cc1)CC2 [Example 27, 4-oxo-4H-chromene-3-carboxylic acid [2-(2-{4-[2-(6,7-dimethoxy-3,4-dihydro-1H-isoquinolin-2-yl)-ethyl]-phenyl}-2H-tetrazol-5-yl)-4,5-dimethoxy-phenyl]-amide] | 2.1 |
| COc1cc2c(cc1OC)CN(CCc1ccc(-n3nnc(-c4cc(OC)c(OC)cc4NC(=O)c4ccc5ccccc5n4)n3)cc1)CC2 [Example 2, quinoline-2-carboxylic acid [2-(2-{4-[2-(6,7-dimethoxy-3,4-dihydro-1H-isoquinolin-2-yl)-ethyl]-phenyl}-2H-tetrazol-5-yl)-4,5-dimethoxy-phenyl]-amide] | 2.7 |
| COc1cc2c(cc1OC)CN(CCc1ccc(-n3nnc(-c4cc(OC)c(OC)cc4NC(=O)c4cc(=O)c5cc(C)ccc5o4)n3)cc1)CC2 [Example 22, 6-methyl-4-oxo-4H-chromene-2-carboxylic acid [2-(2-{4-[2-(6,7-dimethoxy-3,4-dihydro-1H-isoquinolin-2-yl)-ethyl]-phenyl}-2H-tetrazol-5-yl)-4,5-dimethoxy-phenyl]-amide] | 73.4 |
| COc1cc2c(cc1OC)CN(CCc1ccc(-n3nnc(-c4cc(OC)c(OC)cc4NC(=O)c4ccoc4)n3)cc1)CC2 [Example 20, furan-3-carboxylic acid [2-(2-{4-[2-(6,7-dimethoxy-3,4-dihydro-1H-isoquinolin-2-yl)-ethyl]-phenyl}-2H-tetrazol-5-yl)-4,5-dimethoxy-phenyl]-amide] | 3.5 |
| COc1cc2c(cc1OC)CN(CCc1ccc(-n3nnc(-c4cc(OC)c(OC)cc4NC(=O)c4ccsc4)n3)cc1)CC2 [Example 19, thiophene-3-carboxylic acid [2-(2-{4-[2-(6,7-dimethoxy-3,4-dihydro-1H-isoquinolin-2-yl)-ethyl]-phenyl}-2H-tetrazol-5-yl)-4,5-dimethoxy-phenyl]-amide] | 4.5 |
| COc1cc2c(cc1OC)CN(CCc1ccc(-n3nnc(-c4cc(OC)c(OC)cc4NC(=O)c4cc5ccccc5cn4)n3)cc1)CC2 [Example 3, isoquinoline-3-carboxylic acid [2-(2-{4-[2-(6,7-dimethoxy-3,4-dihydro-1H-isoquinolin-2-yl)-ethyl]-phenyl}-2H-tetrazol-5-yl)-4,5-dimethoxy-phenyl]-amide] | 3.5 |
| COc1cc2c(cc1OC)CN(CCc1ccc(-n3nnc(-c4cc(OC)c(OC)cc4NC(=O)c4cc(OC)c5ccccc5n4)n3)cc1)CC2 [Example 7, 4-methoxy-quinoline-2-carboxylic acid [2-(2-{4-[2-(6,7-dimethoxy-3,4-dihydro-1H-isoquinolin-2-yl)-ethyl]-phenyl}-2H-tetrazol-5-yl)-4,5-methoxy-phenyl]-amide] | 3.3 |
| COc1cc2c(cc1OC)CN(CCc1ccc(-n3nnc(-c4cc(OC)c(OC)cc4NC(=O)c4cnc5ccccc5c4)n3)cc1)CC2 [Example 30] | 2.6 |
| COc1cc2c(cc1OC)CN(CCc1ccc(-n3nnc(-c4cc(OC)c(OC)cc4NC(=O)c4cc(=O)c5c(OC)cccc5o4)n3)cc1)CC2 [Example 23, 5-methoxy-4-oxo-4H-chromene-2-carboxylic acid [2-(2-{4-[2-(6,7-dimethoxy-3,4-dihydro-1H-isoquinolin-2-yl)-ethyl]-phenyl}-2H-tetrazol-5-yl)-4,5-dimethoxy-phenyl]-amide] | 49.9 |
| COc1cc2c(cc1OC)CN(CCc1ccc(-n3nnc(-c4cc(OC)c(OC)cc4NC(=O)c4cccc(F)c4)n3)cc1)CC2 [Example 16, N-[2-(2-{4-[2-(6,7-dimethoxy-3,4-dihydro-1H-isoquinolin-2-yl)-ethyl]-phenyl}-2H-tetrazol-5-yl)-4,5-dimethoxy-phenyl]-3-fluoro-benzamide] | 6.7 |
| COc1ccc(CCN(C)CCc2ccc(-n3nnc(-c4cc(OC)c(OC)cc4NC(=O)c4cc(=O)c5ccccc5o4)n3)cc2)cc1OC [Example 33, 4-oxo-4H-chromene-2-carboxylic acid (2-{2-[4-(2-{[2-(3,4-dimethoxy-phenyl)-ethyl]-methyl-amino}-ethyl)-phenyl]-2H-tetrazol-5-yl}-4,5-dimethoxy-phenyl)-amide] | 23.0 |
| COc1cc2c(cc1OC)CN(CCc1ccc(-n3nnc(-c4cc(OC)c(OC)cc4NC(=O)c4cc(=O)c5cc(F)ccc5o4)n3)cc1)CC2 [Example 24, 6-fluoro-4-oxo-4H-chromene-2-carboxylic acid [2-(2-{4-[2-(6,7-dimethoxy-3,4-dihydro-1H-isoquinolin-2-yl)-ethyl]-phenyl}-2H-tetrazol-5-yl)-4,5-dimethoxy-phenyl]-amide] | 39.3 |
| COc1cc2c(cc1OC)CN(CCc1ccc(-n3nnc(-c4cc(OC)c(OC)cc4NC(=O)c4cccc5cccnc45)n3)cc1)CC2 [Example 4, quinoline-8-carboxylic acid [2-(2-{4-[2-(6,7-dimethoxy-3,4-dihydro-1H-isoquinolin-2-yl)-ethyl]-phenyl}-2H-tetrazol-5-yl)-4,5-dimethoxy-phenyl]-amide] | 4.3 |
| COc1cc2c(cc1OC)CN(CCc1ccc(-n3nnc(-c4cc(OC)c(OC)cc4NC(=O)c4ccccn4)n3)cc1)CC2 [Example 9, pyridine-2-carboxylic acid [2-(2-{4-[2-(6,7-dimethoxy-3,4-dihydro-1H-isoquinolin-2-yl)-ethyl]-phenyl}-2H-tetrazol-5-yl)-4,5-dimethoxy-phenyl]-amide] | 3.1 |
| COc1cc2c(cc1OC)CN(CCc1ccc(-n3nnc(-c4cc(OC)c(OC)cc4NC(=O)c4nccc5ccccc45)n3)cc1)CC2 [Example 5, isoquinoline-1-carboxylic acid [2-(2-{4-[2-(6,7-dimethoxy-3,4-dihydro-1H-isoquinolin-2-yl)-ethyl]-phenyl}-2H-tetrazol-5-yl)-4,5-dimethoxy-phenyl]-amide] | 1.8 |
| COc1cc2c(cc1OC)CN(CCc1ccc(-n3nnc(-c4cc(F)c(F)cc4NC(=O)c4cnc5ccccc5c4)n3)cc1)CC2 [Example 28, quinoline-3-carboxylic acid [2-(2-{4-[2-(6,7-dimethoxy-3,4-dihydro-1H-isoquinolin-2-yl)-ethyl]-phenyl}-2H-tetrazol-5-yl)-4,5-difluoro-phenyl]-amide] | 19.9 |
| COc1cc2c(cc1OC)CN(CCc1ccc(-n3nnc(-c4cc(OC)c(OC)cc4NC(=O)c4cnc5ccccc5n4)n3)cc1)CC2 [Example 8, quinoxaline-2-carboxylic acid [2-(2-{4-[2-(6,7-dimethoxy-3,4-dihydro-1H-isoquinolin-2-yl)-ethyl]-phenyl}-2H-tetrazol-5-yl)-4,5-dimethoxy-phenyl]-amide] | 22.0 |
| COc1cc2c(cc1OC)CN(CCc1ccc(-n3nnc(-c4cc(OC)c(OC)cc4NC(=O)c4cnnc5ccccc45)n3)cc1)CC2 [Example 26, cinoline-4-carboxylic acid [2-(2-{4-[2-(6,7-dimethoxy-3,4-dihydro-1H-isoquinolin-2-yl)-ethyl]-phenyl}-2H-tetrazol-5-yl)-4,5-dimethoxy-phenyl]-amide] | 24.0 |
| COc1cc2c(cc1OC)CN(CCc1ccc(-n3nnc(-c4cc(OC)c(OC)cc4NC(=O)c4ccc5ccccc5c4)n3)cc1)CC2 [Example 14, naphthalene-2-carboxylic acid [2-(2-{4-[2-(6,7-dimethoxy-3,4-dihydro-1H-isoquinolin-2-yl)-ethyl]-phenyl}-2H-tetrazol-5-yl)-4,5-dimethoxy-phenyl]-amide] | 2.6 |
